Laboratory results reported in US7745651B2, “Cationic lipids and methods of use” (Protiva Biotherapeutics, Inc., priority 2004, dated 2010).
Entries after “also recorded” stand apart in the source; their conditions may differ.

Assays:
[1] = TNS assay, apparent pKa of cationic lipid incorporated in SNALP; conditions: TNS fluorescence, pH varied from 4.5 to 9.5
Protocol: TNS Assay: 20 μM of SNALP lipid and 6 μM of TNS were mixed in a fluorescence cuvette in 2 mL of 20 mM sodium phosphate, 25 mM citrate, 20 mM ammonium acetate and 150 mM NaCl, at a pH that was varied from 4.5 to 9.5. Fluorescence was determined at each pH using a Varian Eclipse Spectrofluorometer (Varian Inc) with settings of λex=322 nm, λem=431 nm. Fluorescence for each system at the various pH was then normalized to the value at pH 4.5. The pKa values are the point at which 50% of the molecules present are charged. By assuming that minimum fluorescence represents zero charge, and maximum fluorescence represents 100% charge, pKa can be estimated by measuring the pH at the point exactly half way between the values of minimum and maximum charge.
TNS is electrostatically attracted to positively charged membranes. Subsequent adsorption to the lipid membrane results in the immediate environment of the TNS becoming more lipophilic, removing the water molecules that otherwise quench TNS fluorescence. Since TNS is more readily absorbed by positively charged membranes, TNS fluorescence is an indicator of positive membrane surface charge. The surface pKa values of each SNALP formulation were determined by varying the local pH in the presence of TNS.

[2] = system: luciferase expression in Neuro2A-G cells (Neuro2A cells stably transfected to express luciferase); assay: In vitro transfection: luciferase gene silencing by SNALP encapsulating anti-luciferase siRNA; format: cell-based; conditions: SNALP with anti-luciferase siRNA; for knockdown in gene expression (luciferase) versus control SNALP containing mismatch siRNA: Neuro2A cells stably expressing luciferase, 48 hours; for luciferase expression relative to untreated control: after 48 hours
Protocol: In vitro Transfection: Cells were cultured in MEM (Invitrogen) containing 10% fetal bovine serum (FBS) (CanSera) and 0.25 mg/mL G418 (Invitrogen). Neuro2A-G cells (Neuro2A cells stably transfected to express luciferase [R. E. Kingston. in Current Protocols in Molecular Biology, Vol. 2, pp. 9.1.4-9.1.9, John Wiley & Sons, Inc. (1997)]) were plated at a concentration of 4×10^4 cells per well in 24-well plates and grown overnight. Cells were treated with SNALP at doses of 0.0625-1.0 μg/mL nucleic acid (AntiLuc Active or Mismatch Control) and incubated for 48 hours at 37° C. and 5% CO2. Cells were then washed with PBS and lysed with 200 μL 250 mM sodium phosphate containing 0.1% Triton X-100. The luciferase activity for each well was determined using Luciferase Reagent (Promega) and a standard luciferase protein (Roche). The luminescence for each was measured using a Berthold MicroLumatPlus LB96V plate luminometer. The resulting luciferase activity was then normalized for the amount of protein using the Micro BCA assay kit (Pierce). Luciferase knockdown relative to a control was then determined for each system.
This example describes experiments comparing expression of nucleic acids following in vitro transfection of Neuro2A cells with SNALP comprising: (1) DODAC, DODMA, or DLinDMA; (2) PEG-C-DMA; and (3) an siRNA duplex directed against luciferase encapsulated in the SNALP (i.e., siRNA comprising the following sequence: […] (SEQ ID NO:1) and targeting the DNA sequence complementary to: […] (SEQ ID NO:3)). Neuro2A cells were stably transfected with a plasmid encoding luciferase under the control of the CMV promoter (pLO55). The stably transfected cells were then transfected with SNALP comprising: 15, 20, 25, 30, 35, or 40% of DODAC, DODMA, or DLinDMA; 2% PEG-C-DMA, and an siRNA duplex directed against luciferase encapsulated in the SNALP. Luciferase protein expression was measured 48 hours after transfection with SNALP.
The ability of SNALP containing each of the four cationic lipids (i.e., DSDMA, DODMA, DLinDMA, and DLenDMA) to effect gene silencing in stably transfected Neuro2A cells was evaluated. Neuro2A cells stably transfected to express the luciferase were treated with SNALP containing anti-luciferase siRNA for 48 hours. Gene-silencing efficiency was evaluated by comparing the remaining luciferase activity in these cells to that remaining in cells treated with control SNALP containing mismatch siRNA.

[3] = 31P-NMR of DPPS/cationic lipid MLV, bilayer-to-hexagonal phase transition temperature; format: physicochemical; conditions: MLV of DPPS and cationic lipid 1:1 molar ratio, 10 mM sodium citrate pH 4
Protocol: ^31P Nuclear Magnetic Resonance Spectroscopy: Multilamellar vesicles (MLV) were prepared comprising DPPS and cationic lipid at a molar ratio of 1:1. This was accomplished by drying the lipids from chloroform solution, transferring to 10 mm NMR tubes, and hydrating in 1.5 mL of 10 mM sodium citrate, pH 4. Free induction decays (FIDs) corresponding to 1000 scans were obtained with a 3.0 μs, 60o pulse with a 1 s interpulse delay and a spectral width of 25000 Hz. A gated two-level proton decoupling was used to ensure sufficient decoupling with minimum sample heating. An exponential multiplication corresponding to 50 Hz of line broadening was applied to the FIDs prior to Fourier transformation. The sample temperature (+/−1° C.) was regulated using a Bruker B-VT1000 variable temperature unit. Chemical shifts were referenced to 85% phosphoric acid as an external standard.
The significance of saturation with respect to phase transition temperature was investigated using ^31P-NMR. […] By determining the temperature at which the conversion occurs, the relative ease with which the lipids form the HII phase, their ‘fusogenicity’, can be determined.
MLV were prepared using the anionic lipid DPPS in a 1:1 molar ratio with each cationic lipid. The ^31P-NMR spectra of the MLV were measured at various temperatures. […]

With `CC/C=C\C/C=C\C/C=C\CCCCCCCCOCC(CN(C)C)OCCCCCCCC/C=C\C/C=C\C/C=C\CC` (stereo not shown) [DLenDMA, 1,2-Dilinolenyloxy-N,N-dimethylaminopropane] the “apparent (surface) pKa of cationic lipid in SNALP” value [1] was 6.7, the “knockdown in gene expression (luciferase) versus control SNALP containing mismatch siRNA” value [2] was “slightly less efficient than those containing DLinDMA” and the “luciferase expression relative to untreated control” value [2] was 32%.
With `CCCCCCCCCCCCCCCCCC[N+](C)(C)CCCCCCCCCCCCCCCCCC` [DSDMA, Distearyldimethylammonium] the “apparent (surface) pKa of cationic lipid in SNALP” value [1] was about 7.6, the “bilayer-to-hexagonal (HII) phase transition temperature (Tc)” value [3] was over 50 °C and the “knockdown in gene expression (luciferase) versus control SNALP containing mismatch siRNA” value [2] was “no activity; also recorded: almost no capacity for effecting RNA interference”. For the same molecule, the “luciferase expression relative to untreated control” value [2] was “no effect on luciferase gene expression”.
